# Patent publication US12226409B2, “Treatment of hepatocellular carcinoma” (Eisai R&D Management Co., Ltd., priority 2017, dated 2025)
# Key:
# [1] = Phase 1 study of lenvatinib in HCC, plasma concentration; type: in vivo, human; details: HCC patients 12 mg per day vs solid tumor patients 25 mg per day
# [2] = test system: unresectable HCC; test: Open-label phase 3 noninferiority study, efficacy (tumor assessment by mRECIST); type: in vivo, human
# Text: The primary endpoint was overall survival.
# Patients who were eligible for enrollment had unresectable HCC with diagnosis confirmed histologically or cytologically or with diagnosis confirmed clinically in accordance with the American Association for the Study of Liver Diseases criteria. Included patients also had ≥1 measureable target lesion, based on modified Response Evaluation Criteria in Solid Tumors (Lencioni 2010); Barcelona Clinic Liver Cancer stage B or C categorization (Bruix Hepatology 2011); Child-Pugh class A; and Eastern Cooperative Oncology Group performance status ≤1. All eligible patients had controlled blood pressure (≤150/90 mm Hg), and adequate organ function. Patients with ≥50% liver occupation, clear bile duct invasion, or portal vein invasion at the main portal vein were excluded. Patients also were excluded if that had received prior systemic therapy for HCC.
# Tumors were evaluated in accordance with mRECIST (Lencioni R., Semin Liver Dis., 30(1):52-60, 2010); RECIST 1.1 was applied for nonhepatic lesions (Eisenhauer, Eur J Cancer, 45(2):228-47, 2009). The liver was examined with computed tomography or magnetic resonance imaging was performed using a triphasic scanning technique. Assessments were performed every 8 weeks until disease progression. Quality of life questionnaires were administered at baseline, on day 1 of each subsequent treatment cycle, and at the off-treatment visit.
# The primary endpoint of overall survival was first tested for noninferiority then for superiority. The required number of events for the primary analysis was 700 deaths, based on the fill analysis set. The HR and its 95% confidence interval (CI) were estimated from a Cox proportional hazard model with treatment group as a factor and with the analysis stratified according to the same factors applied for randomization.
# A fixed-sequence procedure was followed to control the overall type I error rate of analyses for both the primary and secondary efficacy endpoints at α=0.05 (2-sided). After noninferiority was declared, secondary efficacy endpoints were tested. Differences in progression-free survival and time to progression were evaluated using a stratified log-rank test with randomization stratification factors, with the associated HR and its 95% CI. A difference in the objective response rate was evaluated using the Cochran-Mantel-Haenszel chi-square test with randomized stratification factors as strata, with associated odds ratio and its 95% CI. To assess futility, 2 interim analyses (at 30% and 70% of the target number of events) were performed using Bayesian predictive probability in a noninferiority design by the independent data monitoring committee.
smiles,measurement,setting,value
"COc1cc2nccc(Oc3ccc(NC(=O)NC4CC4)c(Cl)c3)c2cc1C(N)=O [Lenvatinib, 4-(3-chloro-4(cyclopropylaminocarbonyl)aminophenoxy)-7-methoxy-6-quinolinecarboxamide]",lenvatinib plasma concentration at 24 hours,[1],similar
same,Primary reason for discontinuation of treatment: Disease Progression,[2]; Full Analysis Set,311 (65.1) n (%)
same,Durable stable disease lasting ≥23 wk,[2]; in vivo,167 no.
same,Median overall survival,[2]; in vivo,13.6 mo
same,Median progression-free survival,[2]; mRECIST,7.4 mo
same,Median time to progression,[2]; mRECIST,8.9 mo
